According to patent US20100040630A1, “METHODS AND COMPOSITIONS FOR TREATING BONE LOSS” (priority 2008, published 2010):

Experiments:
RA = conditions: 7.5 mg daily, compared with placebo; cited from earlier work
[1] = system: early (<3 yrs), active, MTX-naive RA patients; assay: Subanalysis of Study J: DXR-MCI hand bone loss by clinical response (DAS28 subgroups); format: in vivo, human; conditions: for Mean % DXR-MCI change / median % DXR-MCI change: baseline to 52 weeks
Experimental: As described above, Study J compared the efficacy of adalimumab plus MTX vs. MTX alone and adalimumab alone in early (<3 yrs), active, MTX-naive RA patients. The subanalysis described herein involved the MTX monotherapy and the combination therapy groups. Hand bone loss was assessed by digital X-ray radiogrammetry metacarpal cortical index (DXR-MCI), calculated from digitized radiographs (DXR, Sectra, Sweden). […] MCI percentage change from baseline to 52 weeks was evaluated for patients with different clinical response. Disease activity was assessed by DAS28 scores at 52 weeks in 4 subgroups: Remission=DAS28<2.60; Low disease activity=DAS28 2.61-3.20; Moderate disease activity=DAS28 3.21-5.20; and high disease activity=DAS28>5.20. Non-parametric group comparisons were performed.

[2] = system: patients with early rheumatoid arthritis; assay: Study J: cortical hand bone loss by digital X-ray radiogrammetry metacarpal cortical index (DXR-MCI); format: in vivo, human; conditions: for median percentage DXR-MCI change: change from baseline
Experimental: Generally, the study included 768 patients with active RA for <3 years who were naïve to MTX. Clinical data collections and radiographic examinations of hands were performed at baseline, and after 26, 52 and 104 weeks of therapy. Hand bone loss was assessed by digital X-ray radiogrammetry (DXR), primarily as metacarpal cortical index (MCI), on the same radiographs used for joint damage assessments.
(§1) The radiographic and clinical data from this 2-year, multi-centre, double-blind, randomised controlled study (Study J) was previously been described in detail (see Breedveld et al. (2006) Arthritis Rheum 54:26-37). The efficacy and safety of adalimumab plus MTX was compared with adalimumab monotherapy and with MTX monotherapy for 799 adult patients with early (<3 years), aggressive RA (mean erosion score of approximately 12 Sharp units, estimated annual TSS progression of approximately 27 Sharp units) who previously had not been treated with MTX, cyclophosphamide, cyclosporine, azathioprin or more than 2 other DMARDs (Breedveld et al. (2006), supra). […] Radiographs from hands and feet were scored according to a modified Sharp score (range 0-398) (Breedveld et al. (2006), supra).
(§2) Digital X-ray radiogrammetry (DXR) (Sectra, Linkoping, Sweden) was used to measure hand bone mineral density (BMD) and metacarpal cortical index (MCI) on the same digitized hand X-rays used for assessment of radiographic joint damage. DXR is a computer version of the traditional radiogrammetry technique,[13] and have improved the method and its precision substantially. DXR has been described in detail.[14,15,16] On hand radiographs, the computer automatically recognizes regions of interest (ROI) around the narrowest part of the second, third, and fourth metacarpal bone and measures cortical thickness, bone width, and porosity 118 times per cm. DXR-BMD is defined as: c X VPAcomb X (1-p), where c is a constant (determined by the result that DXR-BMD, on average, is equal to the mid-distal forearm region of the Hologic QDR-2000 device); VPA is volume per area; and p is porosity. DXR-MCI is defined as the combined cortical thickness divided by the outer cortical diameter and is a relative bone measure independent of bone size, bone length, and image capture setting.[16.17] Both DXR-BMD and DXR-MCI provide substantial degrees of precision.[17]
DXR-BMD was intended to be the main outcome measure in this study. However, many radiographs could not be analysed for BMD because of unknown image resolution. Generally, the equation for DXR-BMD is based on volume per area and requires a defined or known resolution, since a distance in a digitised radiograph cannot be measured when the resolution is unknown. Thus, DXR-MCI, which is a relative measure independent of image resolution, was used as the primary outcome measure. […] [19]
(§3) To avoid bias regarding dominant vs. non-dominant hand and to achieve better accuracy, mean value measurements from both hands were used.[10] If the radiograph from one hand could not be analysed or were missing, the radiograph from the available hand for all analyses at the different time points was used.
(§4) Since the data were not normally distributed, non-parametric analyses were conducted. No imputations were performed. Baseline values were compared between treatment groups with the Kruskall-Wallis method for continuous variables and with the chi-squared method for categorical variables. Comparisons of changes in hand BMD were conducted following methodologies parallel and similar to ones employed in the original Study J. Two groups were compared in a hierarchical order with the Mann-Whitney U test (i.e., two-sided comparison of the combination group vs. MTX, followed by two-sided comparisons between the monotherapy treatment arms, and finally two-sided comparisons between the adalimumab monotherapy and the combination group). Each pair-wise comparison was completed only if the previous comparison was statistically significant. […]

[3] = system: patients with early rheumatoid arthritis; assay: Study J: hand bone mineral density by digital X-ray radiogrammetry (DXR-BMD); format: in vivo, human
From the text: as §1, §2
For comparison, results for DXR-BMD are also provided. All images of unknown resolution were analyzed by assuming 254 dpi (the scanning resolution for the radiographs before scoring). Several of the radiographs were, however, clearly of a resolution other than 254 dpi, most likely because they had been printed in non-true size before scanning. All available images from baseline were analyzed, as well as 26, 52 and 104 weeks, by DXR-BMD and calculated mean metacarpal width. Based on analyses from other studies with a controlled resolution, [19] a deviation from baseline width greater than 2% was believed to likely indicate an incorrect value. With this 2% value as a cut-off, 23% of the radiographs were excluded from further DXR-BMD analyses. The flow chart in FIG. 1 illustrates the patients who were included in the DXR-MCI and DXR-BMD analyses.
as §3
as §4, with “significant. Bone loss over time was expressed as a negative value.” for “significant.”

[4] = system: patients with early rheumatoid arthritis; assay: Study J: radiographic joint damage, modified Sharp score; format: in vivo, human
From the text: as §1

RA patients = RA patients receiving infliximab; cited from earlier work
[5] = High disease activity (DAS28>5.20)
[6] = Low disease activity (DAS28 2.61-3.20)
[7] = Moderate disease activity (DAS28 3.21-5.20)

Molecule	median percentage DXR-MCI change ([2]; 26 weeks)	median percentage DXR-MCI change ([2]; 52 weeks)	median percentage DXR-MCI change ([2]; 104 weeks)	median DXR-BMD percentage change ([3]; 26 weeks)	median DXR-BMD percentage change ([3]; 52 weeks)	median DXR-BMD percentage change ([3]; 104 weeks)	mean radiographic change in the modified Sharp score ([4]; 26 weeks)	median radiographic change in the modified Sharp score ([4]; 26 weeks)	mean radiographic change in the modified Sharp score ([4]; 52 weeks)	median radiographic change in the modified Sharp score ([4]; 52 weeks)	mean radiographic change in the modified Sharp score ([4]; 104 weeks)	median radiographic change in the modified Sharp score ([4]; 104 weeks)	also measured
C[C@]12C=CC(=O)C=C1CC[C@@H]1[C@@H]2[C@@H](O)C[C@@]2(C)[C@H]1CC[C@]2(O)C(=O)CO [prednisolone]	–	–	–	–	–	–	–	–	–	–	–	–	rate of hand bone loss (in words) (RA): significantly reduce; rate of radiographic joint damage (in words) (RA): significantly reduce
CN(Cc1cnc2nc(N)nc(N)c2n1)c1ccc(C(=O)N[C@@H](CCC(=O)O)C(=O)O)cc1 [MTX, methotrexate]	−1.42%	−2.87%	−4.62%	−1.20%	−1.86%	−3.58%	3.4 units	1.0 units	5.1 units	2.0 units	6.4 units	2.0 units	difference in bone loss among remission, low, moderate and high disease activity subgroups (in words) ([1]; 52 weeks): numerical differences; DXR-MCI percentage change ([1]; 52 weeks, pooled subgroup moderate and high disease activity (DAS28)): −4.65%; Mean % DXR-MCI change [1, 5]: −4.64%; median % DXR-MCI change [1, 5]: −3.02%; Mean % DXR-MCI change [1, 6]: −2.98%; median % DXR-MCI change [1, 6]: −2.20%; Mean % DXR-MCI change [1, 7]: −4.65%; median % DXR-MCI change [1, 7]: −3.33%; Mean % DXR-MCI change ([1]; Remission (DAS28<2.60)): −2.99%; median % DXR-MCI change ([1]; Remission (DAS28<2.60)): −2.14%
infliximab	–	–	–	–	–	–	–	–	–	–	–	–	bone loss in hip and spine (in words) (RA patients): arrested; hand bone loss (in words) (RA patients): hand bone loss was not halted
adalimumab	−1.33%	−2.45%	−4.03%	−0.96%	−1.97%	−2.40%	2.1 units	0.5 units	3.3 units	0.5 units	4.8 units	1.0 units	hand bone loss in relation to clinically assessed disease activity (in words) ([1]; 52 weeks, DAS28 subgroups): reduces hand bone loss independent of clinically assessed disease activity; effect on hand bone loss (in words) ([2]; early RA, Study J): protected against hand bone loss
